The values below come from patent publication US10508120B2, “TYK2 inhibitors and uses thereof” (Nimbus Lakshmi, Inc., priority 2017, dated 2019).

The target in assay [1] is human TYK2 (JH2domain-pseudokinase) (Homo sapiens (Human), UniProt P29597). As to the kind of experiment: TYK2 JH2 Domain Binding Assay (KINOMEscan). In a few lines:
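Competition binding of a DNA-tagged fusion of human TYK2 JH2 pseudokinase (G556–D888) with NFkB DNA-binding domain, from HEK293 extracts (<0.1 nM final), against immobilised ligand beads; 1 h shaking at room temperature, 0.9% DMSO. Bound kinase quantified by qPCR.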

The target of a further assay is Tyk2 kinase domain (DH1) (Homo sapiens (Human), UniProt P29597). The assay can be described thus: Tyk2 Radioactive Kinase Assay. The assay is classed as biochemical. The conditions noted are these: read-out: Tyk2 JH1% Inhibition @ 10 μM. Summed up: (§1)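 Single-point screen: 10 μM test compound, radioactive kinase read-out, percent inhibition reported for each kinase domain.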
Chain of Tyk2 kinase domain (DH1) (P29597 897-1176): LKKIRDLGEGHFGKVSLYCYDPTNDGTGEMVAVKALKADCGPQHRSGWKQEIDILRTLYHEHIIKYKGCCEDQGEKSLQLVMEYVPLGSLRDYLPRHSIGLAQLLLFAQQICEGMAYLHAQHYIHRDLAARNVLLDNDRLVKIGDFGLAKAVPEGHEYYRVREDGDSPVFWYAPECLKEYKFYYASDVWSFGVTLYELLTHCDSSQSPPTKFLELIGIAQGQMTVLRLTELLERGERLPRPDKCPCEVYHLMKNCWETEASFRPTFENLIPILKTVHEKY

For a further assay, the target named is JAK2 kinase domain (JH1) (Homo sapiens (Human), UniProt O60674). The assay can be described thus: JAK2 Radioactive Kinase Assay. The conditions noted are these: read-out: JAK2 JH1% Inhibition @ 10 μM. It is filed as biochemical. Summed up:
as §1

The target of assay [2] is Tyk2/JAK2 (heterodimeric complex) (Homo sapiens (Human), UniProt P29597). As to the kind of experiment: IL-12 Induced pSTAT4 in Human PBMC. The assay is classed as cell-based. The conditions noted are these: 1.7 ng/mL IL-12. From the text: The IL-12 Induced pSTAT4 assay evaluates the inhibition of IL-12 induced STAT4 phophorylation mediated by Tyk2/JAK2 (heterodimeric complex).
Chain of Tyk2/JAK2 (heterodimeric complex) (P29597 whole entry, other chains not shown): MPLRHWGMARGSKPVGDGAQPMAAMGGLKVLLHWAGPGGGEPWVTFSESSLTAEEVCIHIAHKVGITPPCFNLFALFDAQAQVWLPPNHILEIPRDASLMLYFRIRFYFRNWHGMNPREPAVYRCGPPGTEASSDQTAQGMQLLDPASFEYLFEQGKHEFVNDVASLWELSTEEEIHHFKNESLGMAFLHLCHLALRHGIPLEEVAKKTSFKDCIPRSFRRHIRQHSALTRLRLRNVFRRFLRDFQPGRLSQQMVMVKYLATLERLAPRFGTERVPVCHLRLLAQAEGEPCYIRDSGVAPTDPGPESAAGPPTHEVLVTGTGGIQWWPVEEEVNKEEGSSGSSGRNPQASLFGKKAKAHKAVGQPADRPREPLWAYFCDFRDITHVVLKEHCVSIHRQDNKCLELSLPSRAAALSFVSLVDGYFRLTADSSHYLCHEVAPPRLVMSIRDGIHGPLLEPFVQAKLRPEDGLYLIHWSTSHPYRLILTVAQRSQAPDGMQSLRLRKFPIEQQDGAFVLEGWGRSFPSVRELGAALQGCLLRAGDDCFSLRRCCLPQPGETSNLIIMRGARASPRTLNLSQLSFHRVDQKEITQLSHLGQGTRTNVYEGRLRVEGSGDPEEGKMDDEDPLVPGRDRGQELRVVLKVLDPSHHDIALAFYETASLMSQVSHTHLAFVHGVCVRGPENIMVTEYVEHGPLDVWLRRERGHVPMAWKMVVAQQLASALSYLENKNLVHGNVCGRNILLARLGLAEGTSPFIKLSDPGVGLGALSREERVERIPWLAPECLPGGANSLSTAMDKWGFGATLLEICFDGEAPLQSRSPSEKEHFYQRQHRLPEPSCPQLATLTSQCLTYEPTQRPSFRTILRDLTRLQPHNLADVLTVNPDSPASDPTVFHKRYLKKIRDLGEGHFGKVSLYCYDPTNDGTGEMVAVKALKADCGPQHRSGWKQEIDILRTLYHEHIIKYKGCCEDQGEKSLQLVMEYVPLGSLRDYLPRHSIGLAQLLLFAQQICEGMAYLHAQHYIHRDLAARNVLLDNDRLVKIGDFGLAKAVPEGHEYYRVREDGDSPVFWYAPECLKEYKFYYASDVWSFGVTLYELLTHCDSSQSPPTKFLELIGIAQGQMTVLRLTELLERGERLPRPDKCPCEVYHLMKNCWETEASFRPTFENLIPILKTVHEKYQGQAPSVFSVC

Assay [3] concerns the target JAK2/JAK2 homdimeric complex (Homo sapiens (Human), UniProt O60674). As to the kind of experiment: GM-CSF Induced pSTAT5 in Human PBMC. The assay is classed as cell-based. The conditions noted are these: GM-CSF 5 ng/mL for 20 minutes, pSTAT5 by MSD, read-out: PBMC_GMCSF_pSTAT5 IC50.

Where two headings read alike, the source gives them in different places.

Chain of human TYK2 (JH2domain-pseudokinase) (P29597 556-888): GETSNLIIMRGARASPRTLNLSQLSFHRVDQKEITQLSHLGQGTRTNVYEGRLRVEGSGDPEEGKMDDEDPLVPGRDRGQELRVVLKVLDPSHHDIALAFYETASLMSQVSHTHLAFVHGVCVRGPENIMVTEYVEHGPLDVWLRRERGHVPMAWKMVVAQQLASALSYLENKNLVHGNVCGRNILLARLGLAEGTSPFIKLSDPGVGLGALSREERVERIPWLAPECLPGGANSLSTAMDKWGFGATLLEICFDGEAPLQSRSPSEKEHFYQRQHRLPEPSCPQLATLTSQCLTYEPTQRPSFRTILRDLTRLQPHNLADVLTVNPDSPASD
Chain of JAK2 kinase domain (JH1) (O60674 849-1124): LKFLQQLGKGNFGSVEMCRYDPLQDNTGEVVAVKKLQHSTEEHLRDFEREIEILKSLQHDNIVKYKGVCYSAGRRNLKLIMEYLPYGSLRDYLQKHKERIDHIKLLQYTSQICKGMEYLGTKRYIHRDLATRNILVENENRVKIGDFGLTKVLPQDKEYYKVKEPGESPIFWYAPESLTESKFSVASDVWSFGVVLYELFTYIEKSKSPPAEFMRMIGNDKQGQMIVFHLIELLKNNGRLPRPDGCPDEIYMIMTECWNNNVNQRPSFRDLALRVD
Chain of JAK2/JAK2 homdimeric complex (O60674 whole entry): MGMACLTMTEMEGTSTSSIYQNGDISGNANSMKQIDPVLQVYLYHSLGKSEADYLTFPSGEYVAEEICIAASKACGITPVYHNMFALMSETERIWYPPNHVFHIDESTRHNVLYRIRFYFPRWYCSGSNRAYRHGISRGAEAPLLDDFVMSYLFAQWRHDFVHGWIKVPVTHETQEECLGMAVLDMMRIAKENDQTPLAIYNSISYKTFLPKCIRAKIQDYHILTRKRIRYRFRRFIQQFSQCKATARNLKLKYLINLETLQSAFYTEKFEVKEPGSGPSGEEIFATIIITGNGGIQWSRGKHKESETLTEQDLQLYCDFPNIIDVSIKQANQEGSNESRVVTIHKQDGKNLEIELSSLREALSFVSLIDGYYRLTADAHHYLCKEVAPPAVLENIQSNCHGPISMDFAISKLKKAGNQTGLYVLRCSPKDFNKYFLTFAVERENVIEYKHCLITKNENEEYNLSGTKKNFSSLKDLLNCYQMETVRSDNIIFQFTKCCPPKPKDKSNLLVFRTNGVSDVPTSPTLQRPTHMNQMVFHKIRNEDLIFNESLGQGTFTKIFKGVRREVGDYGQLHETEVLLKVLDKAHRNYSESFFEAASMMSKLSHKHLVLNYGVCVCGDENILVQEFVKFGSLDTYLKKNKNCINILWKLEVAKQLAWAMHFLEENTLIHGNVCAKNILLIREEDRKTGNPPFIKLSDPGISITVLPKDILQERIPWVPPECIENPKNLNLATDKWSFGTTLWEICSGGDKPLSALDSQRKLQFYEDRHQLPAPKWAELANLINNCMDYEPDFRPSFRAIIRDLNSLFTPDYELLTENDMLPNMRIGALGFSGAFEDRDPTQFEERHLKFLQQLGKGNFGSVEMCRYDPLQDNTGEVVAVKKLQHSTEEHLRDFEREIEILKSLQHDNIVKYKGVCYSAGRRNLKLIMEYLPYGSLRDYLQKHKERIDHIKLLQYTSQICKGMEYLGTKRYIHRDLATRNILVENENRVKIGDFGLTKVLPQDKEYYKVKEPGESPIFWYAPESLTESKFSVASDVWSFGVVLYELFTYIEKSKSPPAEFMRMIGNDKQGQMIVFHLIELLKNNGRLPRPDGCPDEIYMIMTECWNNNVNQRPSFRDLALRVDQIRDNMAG
Chain of JAK2/JAK2 homdimeric complex (P32927 17-897 partner): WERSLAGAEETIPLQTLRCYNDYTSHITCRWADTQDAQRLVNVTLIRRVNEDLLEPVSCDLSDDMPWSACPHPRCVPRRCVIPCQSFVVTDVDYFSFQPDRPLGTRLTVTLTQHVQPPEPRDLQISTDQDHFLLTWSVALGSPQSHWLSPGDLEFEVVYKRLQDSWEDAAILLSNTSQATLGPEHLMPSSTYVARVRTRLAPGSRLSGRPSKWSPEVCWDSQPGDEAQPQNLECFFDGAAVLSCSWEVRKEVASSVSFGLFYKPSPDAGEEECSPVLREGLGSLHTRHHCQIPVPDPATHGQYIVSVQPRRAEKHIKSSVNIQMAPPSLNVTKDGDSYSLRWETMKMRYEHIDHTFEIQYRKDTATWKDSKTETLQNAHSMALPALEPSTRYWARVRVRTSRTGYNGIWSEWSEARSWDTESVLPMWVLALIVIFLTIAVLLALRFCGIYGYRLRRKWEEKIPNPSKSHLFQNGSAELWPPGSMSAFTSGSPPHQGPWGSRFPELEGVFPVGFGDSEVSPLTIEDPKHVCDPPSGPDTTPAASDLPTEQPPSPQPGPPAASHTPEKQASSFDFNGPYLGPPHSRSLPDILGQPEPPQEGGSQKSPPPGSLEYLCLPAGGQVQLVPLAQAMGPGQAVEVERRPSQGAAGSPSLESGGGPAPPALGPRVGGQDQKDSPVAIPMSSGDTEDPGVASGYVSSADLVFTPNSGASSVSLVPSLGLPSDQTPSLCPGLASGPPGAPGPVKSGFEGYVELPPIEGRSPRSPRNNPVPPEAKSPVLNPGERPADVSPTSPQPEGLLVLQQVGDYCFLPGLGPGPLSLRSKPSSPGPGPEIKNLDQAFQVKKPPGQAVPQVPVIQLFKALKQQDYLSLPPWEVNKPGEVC

In the case of `CNc1cc(Nc2cccn(-c3ccc(C4CC4)nn3)c2=O)nc2c(C(=O)N[C@H]3C[C@H]3F)cnn12` [I-165], the Kd (in general, the free concentration of one partner at which half of the binding sites on the other are occupied at equilibrium, for simple one-to-one binding) in assay [1] is < 0.2 nM. Also, the inhibition (in general, the change of the read-out against control, counted positive when it falls) at 10 µM is < 50% at Tyk2 kinase domain (DH1) (compound at 10 μM, ATP 10 μM) and < 50% at JAK2 kinase domain (JH1) (compound at 10 μM, ATP 10 μM). The values for the IC50 in assay [2] and in assay [3] were < 100 nM and > 2500 nM, respectively.
In the case of `CNc1cc(Nc2cccnc2OC)nc2c(C(=O)N[C@@H]3CC[C@H]3O)cnn12` (stereo in doubt) [I-363, N-((1R,2R)-2-hydroxycyclobutyl)-5-((2-methoxypyridin-3-yl)amino)-7-(methylamino)pyrazolo[1,5-a]pyrimidine-3-carboxamide], the Kd in assay [1] is < 0.2 nM. Besides, the inhibition at 10 µM is < 50% on Tyk2 kinase domain (DH1) (compound at 10 μM, ATP 10 μM) and 50 to 70% on JAK2 kinase domain (JH1) (compound at 10 μM, ATP 10 μM). Further, the IC50 (usually the concentration that inhibits the measured activity by half) in assay [2] is < 100 nM; in assay [3], > 50000 nM.
The corresponding values for `CNc1cc(-c2cn(CCN3CCCCC3)c3ncccc23)nc2c(C(=O)N[C@H]3C[C@H]3F)cnn12` [I-585] are < 0.2 nM, < 50%, < 50%, < 100 nM and > 12500 nM.
Taken in the same sequence, the figures for `CNc1cc(Nc2cccnc2OC)nc2c(C(=O)N[C@@H]3CC[C@H]3O)cnn12` [I-396] were < 0.2 nM, < 50%, < 50%, < 100 nM and > 50000 nM.
The corresponding values for `CNc1cc(Nc2cc(Cl)cn([C@@H]3CCCOC3)c2=O)nc2c(C(=O)N[C@@H]3C[C@@H]3F)cnn12` [I-773] are < 0.2 nM, < 50%, < 50%, < 100 nM and > 12500 nM.
Consider `CNc1cc(Nc2cc(Cl)cn(-c3cnn(C4CC4)c3C)c2=O)nc2c(C(=O)N[C@H]3C[C@H]3F)cnn12` [I-326], for which the Kd in assay [1] was < 0.2 nM. Further, the inhibition at 10 µM is < 50% on Tyk2 kinase domain (DH1) (compound at 10 μM, ATP 10 μM) and < 50% on JAK2 kinase domain (JH1) (compound at 10 μM, ATP 10 μM). Moreover, the concentration for half-maximal inhibition (IC50) in assay [2] was < 100 nM; in assay [3], > 50000 nM.
With `CNc1cc(Nc2cccn([C@H]3[C@@H]4COC[C@@H]43)c2=O)nc2c(C(=O)N[C@@H]3C[C@@H]3F)cnn12` [I-811], in assay [1], the Kd was < 0.2 nM. Moreover, the inhibition at 10 µM at Tyk2 kinase domain (DH1) (10 μM compound, 10 μM ATP) was < 50%; at JAK2 kinase domain (JH1) (10 μM compound, 10 μM ATP), < 50%. Moreover, the figures for the IC50 in assay [2] and in assay [3] were < 100 nM and > 50000 nM, respectively.
On to `CNc1cc(Nc2cccnc2OC(C)C)nc2c(C(=O)N[C@H]3C[C@H]3F)cnn12` [I-147], for which the Kd in assay [1] is < 0.2 nM. The inhibition at 10 µM at Tyk2 kinase domain (DH1) (compound at 10 μM, ATP 10 μM) is < 50%; at JAK2 kinase domain (JH1) (compound at 10 μM, ATP 10 μM), < 50%. Moreover, the values for the IC50 in assay [2] and in assay [3] were < 100 nM and > 50000 nM, respectively.
With `CNc1cc(Nc2cccnc2OC2CC2)nc2c(C(=O)N[C@H]3COC[C@H]3O)cnn12` [I-547], in assay [1], the Kd is < 0.2 nM. Also, the inhibition at 10 µM on Tyk2 kinase domain (DH1) (compound at 10 μM, ATP 10 μM) was < 50%; at JAK2 kinase domain (JH1) (compound at 10 μM, ATP 10 μM) it was < 50%. In addition, the IC50 in assay [2] is 100 to 500 nM; in assay [3], > 50000 nM.
Turning to `CNc1cc(Nc2cccc([C@@H]3CCCOC3)n2)nc2c(C(=O)N[C@H]3C[C@H]3F)cnn12` [I-562], the Kd in assay [1] is < 0.2 nM. In addition, the inhibition at 10 µM at Tyk2 kinase domain (DH1) (compound at 10 μM, ATP 10 μM) is < 50%; on JAK2 kinase domain (JH1) (compound at 10 μM, ATP 10 μM) it was 50 to 70%. Moreover, the IC50 is < 100 nM in assay [2] and > 50000 nM in assay [3].
Regarding `CNc1cc(Nc2cccc(-c3cnn(C)c3)c2Cl)nc2c(C(N)=O)cnn12` [I-17], the equilibrium dissociation constant (Kd) in assay [1] was < 0.2 nM. Also, the inhibition at 10 µM on Tyk2 kinase domain (DH1) (compound at 10 μM, ATP 10 μM) is 70 to 90%; at JAK2 kinase domain (JH1) (compound at 10 μM, ATP 10 μM), < 50%. Further, the IC50 was < 100 nM in assay [2] and > 2500 nM in assay [3].
With `CNc1cc(Nc2cccn(C3CCC4(CC3)OCCO4)c2=O)nc2c(C(=O)N[C@@H]3C[C@@H]3F)cnn12` [I-415, N-((1R,2S)-2-fluorocyclopropyl)-7-(methylamino)-5-((2-oxo-1-(1,4-dioxaspiro 14.51 decan-8-yl)-1,2-dihydropyridin-3-yl)amino)pyrazolo[1,5-a]pyrimidine-3-carboxamide], in assay [1], the equilibrium dissociation constant (Kd) is < 0.2 nM. In addition, the inhibition at 10 µM was < 50% at Tyk2 kinase domain (DH1) (compound at 10 μM, ATP 10 μM) and < 50% at JAK2 kinase domain (JH1) (compound at 10 μM, ATP 10 μM). In addition, the IC50 in assay [2] is < 100 nM; in assay [3], > 50000 nM.
Regarding `CNc1cc(Nc2cccnc2OC2CCC2)nc2c(C(=O)N[C@H]3C[C@H]3F)cnn12` [I-170], the Kd in assay [1] is < 0.2 nM. For the same compound, the inhibition at 10 µM was < 50% on Tyk2 kinase domain (DH1) (compound at 10 μM, ATP 10 μM) and < 50% at JAK2 kinase domain (JH1) (compound at 10 μM, ATP 10 μM). Besides, the IC50 is < 100 nM in assay [2] and > 50000 nM in assay [3].
As for `CNc1cc(Nc2cccn(-c3ncco3)c2=O)nc2c(C(=O)N[C@H]3C[C@H]3F)cnn12` [I-716], the dissociation constant Kd in assay [1] is < 0.2 nM. For the same compound, the inhibition at 10 µM at Tyk2 kinase domain (DH1) (compound at 10 μM, ATP 10 μM) was < 50%; at JAK2 kinase domain (JH1) (compound at 10 μM, ATP 10 μM), < 50%. Besides, the IC50 was < 100 nM in assay [2] and > 2500 nM in assay [3].
With `CNc1cc(-c2cn(C(C)C)c3ncccc23)nc2c(C(=O)N[C@@H]3CC[C@@H]3O)cnn12` [I-578], the Kd in assay [1] was < 0.2 nM. In addition, the inhibition at 10 µM at Tyk2 kinase domain (DH1) (compound at 10 μM, ATP 10 μM) was < 50%; on JAK2 kinase domain (JH1) (compound at 10 μM, ATP 10 μM) it was < 50%. For the same compound, the concentration for half-maximal inhibition (IC50) is < 100 nM in assay [2] and > 50000 nM in assay [3].
Regarding `[2H]C([2H])([2H])Oc1ncccc1Nc1cc(NC)n2ncc(C(=O)N[C@@H]3CC[C@H]3O)c2n1` [I-410], the Kd in assay [1] is < 0.2 nM. Further, the inhibition at 10 µM at Tyk2 kinase domain (DH1) (compound at 10 μM, ATP 10 μM) is < 50%; at JAK2 kinase domain (JH1) (compound at 10 μM, ATP 10 μM), 50 to 70%. Besides, the half-inhibitory concentration (IC50) was < 100 nM in assay [2] and > 12500 nM in assay [3].
In the case of `CNc1cc(Nc2cc(Cl)cn(C3CCN(C)CC3)c2=O)nc2c(C(=O)NC3CC3)cnn12` [I-883], the Kd in assay [1] was < 0.2 nM. For the same compound, the inhibition at 10 µM at Tyk2 kinase domain (DH1) (10 μM compound, 10 μM ATP) was < 50%; on JAK2 kinase domain (JH1) (10 μM compound, 10 μM ATP), < 50%. Further, the IC50 in assay [2] was < 100 nM; in assay [3], > 12500 nM.
As for `CNc1cc(Nc2cccn(-c3ccc(N4CCOCC4)cc3)c2=O)nc2c(C(=O)N[C@H]3C[C@H]3F)cnn12` [I-135], the Kd in assay [1] is < 0.2 nM. Besides, the inhibition at 10 µM was < 50% on Tyk2 kinase domain (DH1) (compound at 10 μM, ATP 10 μM) and < 50% at JAK2 kinase domain (JH1) (compound at 10 μM, ATP 10 μM). Moreover, the half-inhibitory concentration (IC50) in assay [2] is < 100 nM; in assay [3], > 2500 nM.
Take `CNc1cc(Nc2cccn(-c3cnc(C(=O)N(C)C)cn3)c2=O)nc2c(C(=O)N[C@H]3C[C@H]3F)cnn12` [I-126]: the equilibrium dissociation constant (Kd) in assay [1] is < 0.2 nM. The inhibition at 10 µM was < 50% at Tyk2 kinase domain (DH1) (compound at 10 μM, ATP 10 μM) and < 50% on JAK2 kinase domain (JH1) (compound at 10 μM, ATP 10 μM). Also, the half-maximal inhibitory concentration (IC50) was < 100 nM in assay [2] and > 50000 nM in assay [3].
Turning to `CNc1cc(Nc2cccc3ocnc23)nc2c(C(=O)N[C@@H]3CC[C@H]3O)cnn12` (racemic) [I-756, 5-(benzo[d]oxazol-4-ylamino)-N-(2-hydroxycyclobutyl)-7-(methylamino) pyrazolo[1,5-a]pyrimidine-3-carboxamide], the equilibrium dissociation constant (Kd) in assay [1] is < 0.2 nM. Moreover, the inhibition at 10 µM on Tyk2 kinase domain (DH1) (compound at 10 μM, ATP 10 μM) is < 50%; at JAK2 kinase domain (JH1) (compound at 10 μM, ATP 10 μM) it was < 50%. For the same compound, the IC50 in assay [2] is 100 to 500 nM; in assay [3], > 50000 nM.
Consider `CNc1cc(Nc2cccc3ocnc23)nc2c(C(=O)N[C@@H]3CC[C@@H]3O)cnn12` [I-661], for which, in assay [1], the Kd is < 0.2 nM. Besides, the inhibition at 10 µM on Tyk2 kinase domain (DH1) (compound at 10 μM, ATP 10 μM) was < 50%; at JAK2 kinase domain (JH1) (compound at 10 μM, ATP 10 μM), < 50%. Moreover, the IC50 is < 100 nM in assay [2] and > 12500 nM in assay [3].
As for `CNc1cc(Nc2cc(F)ccc2F)nc2c(C(=O)NC3CC3)cnn12` [I-3], the Kd in assay [1] was < 0.2 nM. For the same compound, the inhibition at 10 µM is < 50% on Tyk2 kinase domain (DH1) (compound at 10 μM, ATP 10 μM) and < 50% on JAK2 kinase domain (JH1) (compound at 10 μM, ATP 10 μM). Besides, the IC50 was < 100 nM in assay [2] and > 12500 nM in assay [3].
